Experimental data from patent US20070218189A1, “Reduction inhibitory agent for active oxygen eliminating-activity” (KABUSHIKI KAISHA HAYASHIBARA SEIBUTSU KAGAKU KENYUJO, priority 2001, published 2007).

Assays:
Format in all cases: biochemical
[1] = test system: superoxide, formed in a xanthine-xanthine oxidase system; experiment: Active oxygen eliminating activity of powdery carrot compositions with saccharides before and after storage, nitro blue tetrazolium (NBT) test (Experiment 3)
Method: (§1) Fresh raw carrots were disrupted by a mixer, and saccharides were respectively added to the mixture and dissolved therein to give a concentration of 10%, d.s.b. The solutions were dried under a reduced pressure at 40° C. for two days, dried in vacuo at the same temperature for 24 hours, and pulverized by a mixer into powdery carrot compositions. […] An about 100 g each of the compositions was placed and sealed in a 500-ml polystyrene container, and stored at 40° C. for seven days. The active oxygen eliminating activities of the compositions before and after storage were compared with each other. The active oxygen eliminating activity was assayed by the nitro blue tetrazolium (NBT) test by Toshio IMANARI et al. in Igakuno Ayumi, Vol. 101, pp. 496-497 (1977), and the level of superoxide, formed in a xanthine-xanthine oxidase system, was assayed by quantifying calorimetrically the content of formazan formed by reducing NBT. As a control, refined water was used as a test solution. One unit activity of active oxygen eliminating activity was defined as that inhibited 50% formazan formation as compared with the control. […] Thus cyclotetrasaccharide is preferable as an effective ingredient for a reduction inhibitory agent for active oxygen eliminating activity.

[2] = test system: superoxide, formed in a xanthine-xanthine oxidase system; experiment: Influence of cyclotetrasaccharide concentration on active oxygen eliminating activity of powdery carrot compositions, NBT test (Experiment 5); conditions: for Activity (unit/g) After storage / Percentage of residual activity (%): 40° C. seven days
Method: as §1
Similarly as in Experiment 3, cyclotetrasaccharide was respectively mixed with and dissolved in disrupted carrots to give concentrations of 0-20%, d.s.b. The resulting mixtures were dried in vacuo at 40° C. for 24 hours, and pulverized into powdery carrot compositions. Similarly as in Experiment 3, each powdery composition was placed and sealed in a polystyrene container, and stored at 40° C. for seven days for evaluating the reduction inhibitory activity for active oxygen activity. The active oxygen eliminating activity of one gram each of powdery compositions before and after storage was measured by the method in Experiment 3.

[3] = test system: superoxide, formed in a hypoxanthine-xanthine oxidase system; experiment: Active oxygen eliminating activity of powdery carrot compositions with saccharides before and after storage, electron spin resonance (ESR) test (Experiment 4)
Method: Fresh raw carrots were disrupted as Experiment 3, and saccharides were respectively added to the mixture and dissolved therein to give a concentration of 10%, d.s.b. The solutions were dried under a reduced pressure at 40° C. for one day, dried in vacuo at the same temperature for 17 hours, and pulverized by a mixer into powdery carrot compositions. […] About 100 g each of the compositions was placed and sealed in a 500-ml polystyrene container, and stored at 40° C. for seven or fourteen days. The active oxygen eliminating activities of the compositions before and after storage were compared with each other. The active oxygen eliminating activity was assayed by the electron spin resonance (ESR) test by Toshihiko OZAWA in BUNSEKI, Vol. 2, pp. 68-74 (2000), and the level of superoxide, formed in a hypoxanthine-xanthine oxidase system, was assayed by the spin-trapping with 5,5-dimethyl-1-pyrroline-N-oxide in ESR.

[4] = test system: active oxygen; experiment: Active oxygen eliminating activity of superoxide dismutase and antioxidants in cyclotetrasaccharide solution or water before and after storage (Experiment 7); conditions: 30% (w/v) cyclotetrasaccharide solution; superoxide dismutase, α-glucosyl hesperidin, α-glucosyl rutin, gallic acid, catechin; in words
Method: In one milliliter of 30% (w/v) cyclotetrasaccharide solution, which is prepared by using cyclotetrasaccharide obtained in Experiment 2, was dissolved five micrograms (μ g) of superoxide dismutase from a horseradish commercialized by Sigma Chemical Co., St. Louis, USA, 10 mg of α-glucosyl hesperidin commercialized by Hayashibara Biochemical Laboratories, Inc., Okayama Japan, 10 mg of α-glucosyl rutin commercialized by Hayashibara Biochemical Laboratories, Inc., Okayama, Japan, 250 μg of gallic acid commercialized by Wako Pure Chemical Industries, Ltd., Tokyo, Japan, or 50 μg of catechin to obtain a liquid composition. Each of the compositions was placed in a glass test tube, sealed with a rubber cap, and stored under a dark condition. As a control, water was used in place of the cyclotetrasaccharide solution.

[5] = test system: superoxide, formed in a xanthine-xanthine oxidase system; experiment: Active oxygen eliminating activity of powdery vegetable compositions with or without cyclotetrasaccharide before and after storage (Experiment 6); conditions: carrot, onion, Japanese radish, cabbage, spinach, cucumber, pumpkin; in words
[6] = powdery carrot composition, saccharide added at 10% d.s.b., stored at 40° C. for seven days
[7] = 0.1% cyclotetrasaccharide added to carrot (content 1.0% d.s.b.)
[8] = 0.5% cyclotetrasaccharide added to carrot (content 4.9% d.s.b.)
[9] = 1.0% cyclotetrasaccharide added to carrot (content 9.4% d.s.b.)
[10] = 2.5% cyclotetrasaccharide added to carrot (content 20.7% d.s.b.)
[11] = 5.0% cyclotetrasaccharide added to carrot (content 34.2% d.s.b.)
[12] = 10.0% cyclotetrasaccharide added to carrot (content 51.1% d.s.b.)
[13] = 20.0% cyclotetrasaccharide added to carrot (content 67.6% d.s.b.)

## OCC1OC2OCC3O[C@H](O[C@H]4C(O)C(CO)OC(OCC5O[C@H](O[C@@H](C1O)C2O)C(O)C(O)[C@@H]5O)C4O)C(O)C(O)[C@@H]3O (stereo partly drawn) [Cyclotetrasaccharide, cyclo{→6)-α-D-glucopyranosyl-(1→3)-α-D-glucopyranosyl-(1→6)-α-D-glucopyranosyl-(1→3)-α-D-glucopyranosyl-(1→}]
[1]; [6]
  Activity (unit/g) After storage: 390 unit/g
  Percentage of residual activity (%): 66%
[1]; powdery carrot composition, saccharide added to disrupted carrots at 10% d.s.b., before storage
  Activity (unit/g) Before storage: 590 unit/g
[1]; powdery carrot compositions, 40° C. seven days, in words
  residual percentage / reduction inhibitory activity for active oxygen eliminating activity among the saccharides tested: highest residual percentage
[2]; [7]
  Activity (unit/g) After storage: 390 unit/g
  Percentage of residual activity (%): 42%
  Activity (unit/g) Before storage: 930 unit/g
[2]; [8]
  Activity (unit/g) After storage: 470 unit/g
  Percentage of residual activity (%): 57%
  Activity (unit/g) Before storage: 820 unit/g
[2]; [9]
  Activity (unit/g) After storage: 450 unit/g
  Percentage of residual activity (%): 61%
  Activity (unit/g) Before storage: 740 unit/g
[2]; [10]
  Activity (unit/g) After storage: 460 unit/g
  Percentage of residual activity (%): 66%
  Activity (unit/g) Before storage: 700 unit/g
[2]; [11]
  Activity (unit/g) After storage: 340 unit/g
  Percentage of residual activity (%): 62%
  Activity (unit/g) Before storage: 550 unit/g
[2]; [12]
  Activity (unit/g) After storage: 290 unit/g
  Percentage of residual activity (%): 69%
  Activity (unit/g) Before storage: 420 unit/g
[2]; [13]
  Activity (unit/g) After storage: 280 unit/g
  Percentage of residual activity (%): 64%
  Activity (unit/g) Before storage: 390 unit/g
[3]; powdery carrot composition, saccharide added at 10% d.s.b., before storage
  Activity (unit/g) Before storage: 186 unit/g
[3]; powdery carrot composition, stored at 40° C. for fourteen days
  Activity (unit/g) After two weeks storage: 66 unit/g
[3]; powdery carrot composition, stored at 40° C. for fourteen days, numerals in parentheses
  percentage of residual activity After two weeks storage: 36%
[3]; powdery carrot composition, stored at 40° C. for seven days
  Activity (unit/g) After one week storage: 88 unit/g
[3]; powdery carrot composition, stored at 40° C. for seven days, numerals in parentheses
  percentage of residual activity After one week storage: 47%
[3]; powdery carrot compositions, in words
  residual percentage for active oxygen eliminating activity among the saccharides tested: highest residual percentage
[4]
  reducing inhibitory activity for active oxygen eliminating activity of plant antioxidants: effective reducing inhibitory activity
[5]
  reduction inhibitory activity for active oxygen eliminating activity by incorporating cyclotetrasaccharide: observed in many vegetables
